# US20240336642A1 (The General Hospital Corporation, priority 2021, published 2024)
# Tests used:
# [1] = target: h12/15-LOX (Homo sapiens (Human), UniProt P16050); assay: 12/15-LOX enzyme inhibition IC50 assay (Examples 1 and 2); type: biochemical; settings: for Emax: h12/15-LOX, read-out: Max % inhibition
# Method: Enzyme was then added to the cuvettes. […] The % inhibition for each test compound concentration were calculated as follows: […]
# [2] = Metabolic stability of exemplified compounds (Example 4); type: in vitro ADME
# [3] = Aqueous solubility of exemplified compounds (Example 3); type: physicochemical; settings: aqueous solubility
# [4] = test system: experimental stroke model in mice (MCAO); assay: Mouse stroke model, filament middle cerebral artery occlusion (MCAO), infarct size; type: in vivo; settings: 40 mg/kg intraperitoneally 2 h post reperfusion, 60 minutes MCAO, sacrifice at 24 h, TTC staining
# Method: Studies were carried out in experimental stroke model in mice, using the filament model of middle cerebral artery occlusion (MCAO). For intraperitoneal delivery, compounds were dissolved in DMSO. A number of exemplified compounds were able to reduce infarct size when given at a dosage of 40 mg/kg.
# 40 mg/kg cmpd. 1 were given i.p. at time of reperfusion. Infarct size was measured at 24 hours after 60 minutes MCAO.
# MCAO (Experimental Middle Cerebral Artery Ischemia and Functional Recovery) experiment: 40 mg/kg of compound delivered intraperitoneally 2 h post reperfusion, 60 minutes MCAO, sacrifice at 24 h, infarct size determined by TTC staining.
# [5] = Solubility in formulation vehicles (Solutol HS-15/PEG400, Captisol); type: physicochemical; settings: 10% Solutol/90% PEG400
# Method: Combinations of Solutol HS-15 (also known as Kolliphor HS-15) with PEG400 provided a good vehicle to solubilize the tested compounds. Specifically, 10% Solutol/90% PEG400 was used to prepare 20 mg/ml solutions of compound 1, compound 44, and compound 32. 10% Solutol/15% H2O/[…] led to 10 mg/ml solutions of the tested compounds.
# 20 mg/ml were obtained in 20% Captisol, allowing for intravenous delivery in the mouse stroke model.
# Chain of h12/15-LOX (P16050 whole entry): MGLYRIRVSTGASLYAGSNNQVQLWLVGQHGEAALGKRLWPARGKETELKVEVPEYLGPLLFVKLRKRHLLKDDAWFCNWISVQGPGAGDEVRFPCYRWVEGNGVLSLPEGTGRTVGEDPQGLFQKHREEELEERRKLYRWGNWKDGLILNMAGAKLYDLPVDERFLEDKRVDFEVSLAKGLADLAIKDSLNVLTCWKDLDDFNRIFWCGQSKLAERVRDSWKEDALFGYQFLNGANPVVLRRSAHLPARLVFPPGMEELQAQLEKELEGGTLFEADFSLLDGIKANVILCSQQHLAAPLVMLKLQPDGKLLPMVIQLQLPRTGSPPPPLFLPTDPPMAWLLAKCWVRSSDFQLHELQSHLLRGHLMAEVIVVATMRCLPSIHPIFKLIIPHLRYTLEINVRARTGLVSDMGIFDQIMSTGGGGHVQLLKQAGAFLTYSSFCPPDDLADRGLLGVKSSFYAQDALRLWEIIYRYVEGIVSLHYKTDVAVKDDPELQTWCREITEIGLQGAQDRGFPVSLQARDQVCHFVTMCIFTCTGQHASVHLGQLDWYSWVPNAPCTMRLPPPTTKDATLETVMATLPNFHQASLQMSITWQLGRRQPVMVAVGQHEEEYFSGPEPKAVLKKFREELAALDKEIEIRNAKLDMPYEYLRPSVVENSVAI
Compound,IC50 [1] [nM],Emax [1] [%],Extr (EH) ([2]; Human liver microsomes),microsomal CLint ([2]; Human liver microsomes) [µL/min/mg],Extr (EH) ([2]; Mouse liver microsomes),microsomal CLint ([2]; Mouse liver microsomes) [µL/min/mg],Extr (EH) ([2]; Rat liver microsomes),microsomal CLint ([2]; Rat liver microsomes) [µL/min/mg],Sol [3],infarct size reduction ([4]; listed as Cmpd. 32) [%],infarct size reduction ([4]; listed as compound 32) [%],solution concentration achieved [5] [mg/mL]
"COCCNc1oc(-c2cc(Cl)cc(Cl)c2Cl)nc1C#N [Compound 39, 5-((2-Methoxyethyl)amino)-2-(2,3,5-trichlorophenyl)oxazole-4-carbonitrile]",370,100,** (“**” 50-100%),20 to 100,** (“**” 50-100%),100 to 200,** (“**” 50-100%),20 to 100,+ (“+” < 10 μM),–,–,–
"CC(C)OCCOCCNc1oc(-c2cc(Cl)cc(Cl)c2Cl)nc1C#N [Compound 49, 5-((2-(2-Isopropoxyethoxy)ethyl)amino)-2-(2,3,5-trichlorophenyl)oxazole-4-carbonitrile]",660,95,* (“*” <50%),< 20,** (“**” 50-100%),20 to 100,** (“**” 50-100%),20 to 100,+ (“+” < 10 μM),–,–,–
"COCCOCCNc1oc(-c2cc(Cl)cc(Cl)c2Cl)nc1C#N [Compound 32, 5-((2-(2-Methoxyethoxy)ethyl)amino)-2-(2,3,5-trichlorophenyl) oxazole-4-carbonitrile]",610,96,* (“*” <50%),< 20,* (“*” <50%),< 20,* (“*” <50%),< 20,++ (“++” 10-20 μM),31.8,31.8,20
"N#Cc1nc(-c2cc(Cl)cc(Cl)c2Cl)oc1NCCCCCO [Compound 22, 5-((5-Hydroxypentyl)amino)-2-(2,3,5-trichlorophenyl)oxazole-4-carbonitrile]",510,82,** (“**” 50-100%),20 to 100,* (“*” <50%),< 20,* (“*” <50%),20 to 100,+ (“+” < 10 μM),–,–,–
"N#Cc1nc(-c2cc(Cl)cc(Cl)c2OC(F)F)oc1NCCCCO [Compound 18, 2-(3,5-Dichloro-2-(difluoromethoxy)phenyl)-5-((4-hydroxybutyl)amino)oxazole-4-carbonitrile]",2000,90,–,–,–,–,–,–,–,–,–,–
"COCCOCCNc1oc(-c2cc(Cl)cc(Cl)c2F)nc1C#N [Compound 35, 2-(3,5-Dichloro-2-fluorophenyl)-5-((2-(2-methoxyethoxy)ethyl)amino)oxazole-4-carbonitrile]",3000,100,–,–,–,–,–,–,–,–,–,–
"COc1cc(OCCOCCNc2oc(-c3cc(Cl)cc(Cl)c3Cl)nc2C#N)ccn1 [Compound 101, 5-((2-(2-((2-Methoxypyridin-4-yl)oxy)ethoxy)ethyl)amino)-2-(2,3,5-trichlorophenyl)oxazole-4-carbonitrile]",72,62,–,–,–,–,–,–,–,–,–,–
"CNc1oc(-c2cc(C#N)cc(Cl)c2Cl)nc1C#N [Compound 13, 2-(2,3-Dichloro-5-cyanophenyl)-5-(methylamino)oxazole-4-carbonitrile]",1100,100,–,–,–,–,–,–,–,–,–,–
"N#Cc1nc(-c2cc(Cl)cc(Cl)c2Cl)oc1NCCCO [Compound 16, 5-((3-Hydroxypropyl)amino)-2-(2,3,5-trichlorophenyl)oxazole-4-carbonitrile]",4300,100,* (“*” <50%),< 20,** (“**” 50-100%),100 to 200,* (“*” <50%),20 to 100,+++ (“+++” 20-50 μM),–,–,–
"COCCOCCOC(=O)Nc1oc(-c2cc(Cl)cc(Cl)c2Cl)nc1C#N [Compound 60, 2-(2-Methoxyethoxy)ethyl (4-cyano-2-(2,3,5-trichlorophenyl)oxazol-5-yl)carbamate]",> 20000,–,–,–,–,–,–,–,–,–,–,–
